Measurements reported in ChEMBL document CHEMBL3885861, “Open TG-GATES”.

Species on record: Rattus norvegicus
Test: Open TG-GATES - Regimen: Single
Format: toxicity, organism-based, Sprague-Dawley
Design: regimen Single, gender Male, age 6 weeks
Details: in vivo, po, 10 mg/kg, route gavage, dose level Low; for APTT / Bas / Eos / Fbg / Hb / Ht / Lym / MCH / MCHC / MCV / Mono / Neu / PT / Plat / RBC / Ret / WBC: tissue Blood; for A/G / ALP / ALT / AST / BUN / CRE / Ca / Cl / DBIL / GLC / IP / K / LDH / Na / PL / RALB / TBIL / TC / TG / TP / gamma-GTP: tissue Plasma

Work on Cn1cc[nH]c1=S [METHIMAZOLE] yielded a TERMINAL_BW (3 h) of 213.6 g, an APTT (3 h) of 21.5 s and a Bas (3 h) of 0%. The Eos (3 h) was 0.4%, the Fbg (3 h) was 291.6 mg/dL and the Hb (3 h) was 13.5 g/dL. It also gave a Ht (3 h) of 38.3%, a Lym (3 h) of 81.6% and an MCH (3 h) of 22.1 pg. For the same compound, the MCHC (3 h) was 35.3%, the MCV (3 h) was 62.6 fL and the Mono (3 h) was 2%. The Neu (3 h) was 15.2%, the PT (3 h) was 15.4 s and the Plat (3 h) was 123.9 x10_4/uL. For the same compound, the RBC (3 h) was 611.8 x10_4/ul, the Ret (3 h) was 8.4% and the WBC (3 h) was 93.7 x10_2/uL. For the same compound, the A/G (3 h) was 1.3, the ALP (3 h) was 1742.6 IU/L and the ALT (3 h) was 42 IU/L. The AST (3 h) was 72.4 IU/L, the BUN (3 h) was 13.8 mg/dL and the CRE (3 h) was 0.1 mg/dL. For the same compound, the Ca (3 h) was 10.6 mg/dL, the Cl (3 h) was 106.6 meq/L and the DBIL (3 h) was 0 mg/dL. For the same compound, the GLC (3 h) was 179 mg/dL, the IP (3 h) was 8.9 mg/dL and the K (3 h) was 4.2 meq/L. For the same compound, the LDH (3 h) was 206 IU/L, the Na (3 h) was 141.2 meq/L and the PL (3 h) was 141.4 mg/dL. The RALB (3 h) was 3 g/dL, the TBIL (3 h) was 0.006 mg/dL and the TC (3 h) was 77 mg/dL. The TG (3 h) was 74.4 mg/dL, the TP (3 h) was 5.4 g/dL and the gamma-GTP (3 h) was 1.2 IU/L. The TERMINAL_BW (6 h) was 213.5 g, the APTT (6 h) was 20.7 s and the Bas (6 h) was 0%. For the same compound, the Eos (6 h) was 1%, the Fbg (6 h) was 279.8 mg/dL and the Hb (6 h) was 13.6 g/dL. It also gave a Ht (6 h) of 38.5%, a Lym (6 h) of 78.2% and an MCH (6 h) of 21.7 pg. The MCHC (6 h) was 35.2%, the MCV (6 h) was 61.8 fL and the Mono (6 h) was 2.2%. The Neu (6 h) was 18%, the PT (6 h) was 16.1 s and the Plat (6 h) was 103 x10_4/uL. The RBC (6 h) was 624.6 x10_4/ul, the Ret (6 h) was 8.8% and the WBC (6 h) was 85.4 x10_2/uL. The A/G (6 h) was 1.2, the ALP (6 h) was 1761.8 IU/L and the ALT (6 h) was 44.2 IU/L. For the same compound, the AST (6 h) was 75.8 IU/L, the BUN (6 h) was 10.4 mg/dL and the CRE (6 h) was 0.1 mg/dL. The Ca (6 h) was 10.6 mg/dL, the Cl (6 h) was 106.4 meq/L and the DBIL (6 h) was 0 mg/dL. It also gave a GLC (6 h) of 185.2 mg/dL, an IP (6 h) of 9.3 mg/dL and a K (6 h) of 4.3 meq/L. It also gave an LDH (6 h) of 182.4 IU/L, a Na (6 h) of 141 meq/L and a PL (6 h) of 124.8 mg/dL. The RALB (6 h) was 2.8 g/dL, the TBIL (6 h) was 0.01 mg/dL and the TC (6 h) was 71.2 mg/dL. For the same compound, the TG (6 h) was 70.6 mg/dL, the TP (6 h) was 5.2 g/dL and the gamma-GTP (6 h) was 1 IU/L. The TERMINAL_BW (9 h) was 199.1 g, the APTT (9 h) was 21.1 s and the Bas (9 h) was 0%. For the same compound, the Eos (9 h) was 0.8%, the Fbg (9 h) was 299.4 mg/dL and the Hb (9 h) was 13.2 g/dL. For the same compound, the Ht (9 h) was 37.7%, the Lym (9 h) was 75.6% and the MCH (9 h) was 21.3 pg. The MCHC (9 h) was 35.2%, the MCV (9 h) was 60.6 fL and the Mono (9 h) was 1.6%. It also gave a Neu (9 h) of 21%, a PT (9 h) of 16.4 s and a Plat (9 h) of 124.5 x10_4/uL. It also gave an RBC (9 h) of 622.2 x10_4/ul, a Ret (9 h) of 7.7% and a WBC (9 h) of 78.9 x10_2/uL. For the same compound, the A/G (9 h) was 1.2, the ALP (9 h) was 1423.4 IU/L and the ALT (9 h) was 38.4 IU/L. The AST (9 h) was 71.2 IU/L, the BUN (9 h) was 10.8 mg/dL and the CRE (9 h) was 0.1 mg/dL. The Ca (9 h) was 10.5 mg/dL, the Cl (9 h) was 106.4 meq/L and the DBIL (9 h) was 0.002 mg/dL. The GLC (9 h) was 178.2 mg/dL, the IP (9 h) was 9.6 mg/dL and the K (9 h) was 4.5 meq/L. It also gave an LDH (9 h) of 154.8 IU/L, a Na (9 h) of 140.6 meq/L and a PL (9 h) of 133.2 mg/dL. The RALB (9 h) was 3 g/dL, the TBIL (9 h) was 0.01 mg/dL and the TC (9 h) was 76.8 mg/dL. For the same compound, the TG (9 h) was 65 mg/dL, the TP (9 h) was 5.5 g/dL and the gamma-GTP (9 h) was 1 IU/L. The TERMINAL_BW (24 h) was 223.9 g, the APTT (24 h) was 20.3 s and the Bas (24 h) was 0%. For the same compound, the Eos (24 h) was 0.8%, the Fbg (24 h) was 307.8 mg/dL and the Hb (24 h) was 14 g/dL. It also gave a Ht (24 h) of 39.8%, a Lym (24 h) of 79.8% and an MCH (24 h) of 21.7 pg. It also gave an MCHC (24 h) of 35.2%, an MCV (24 h) of 61.9 fL and a Mono (24 h) of 2.4%. For the same compound, the Neu (24 h) was 16.4%, the PT (24 h) was 15.6 s and the Plat (24 h) was 96.9 x10_4/uL. It also gave an RBC (24 h) of 643.8 x10_4/ul, a Ret (24 h) of 7.2% and a WBC (24 h) of 79.8 x10_2/uL. The A/G (24 h) was 1.3, the ALP (24 h) was 2168.2 IU/L and the ALT (24 h) was 55.2 IU/L. For the same compound, the AST (24 h) was 75 IU/L, the BUN (24 h) was 15.6 mg/dL and the CRE (24 h) was 0.1 mg/dL. It also gave a Ca (24 h) of 11 mg/dL, a Cl (24 h) of 106.2 meq/L and a DBIL (24 h) of 0 mg/dL. The GLC (24 h) was 180.6 mg/dL, the IP (24 h) was 6.9 mg/dL and the K (24 h) was 4.2 meq/L. It also gave an LDH (24 h) of 175 IU/L, a Na (24 h) of 142.2 meq/L and a PL (24 h) of 169.8 mg/dL. The RALB (24 h) was 3.1 g/dL, the TBIL (24 h) was 0.01 mg/dL and the TC (24 h) was 85.8 mg/dL. The TG (24 h) was 145.4 mg/dL, the TP (24 h) was 5.5 g/dL and the gamma-GTP (24 h) was 1 IU/L.
